Results taken from patent US10829520B2, “Beta-hairpin peptidomimetics” (POLYPHOR AG, priority 2015, dated 2020).

Tests used:
Format in all cases: cell-based
[1] = test system: Acinetobacter baumannii 872842; conditions: 872842
[2] = test system: Acinetobacter baumannii DSM 30008; conditions: DSM 30008
Summary of the method: (§1)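 CLSI broth microdilution in cation-adjusted Mueller-Hinton II broth with 0.002% Polysorbate 80, inoculum appr. 10^6 CFU/mL, peptides in serial two-fold dilutions. MIC (μg/mL) is the lowest concentration with no visible growth after 18-20 hours at 35° C.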

Escherichia coli 926415 = conditions: 926415
[3] = test system: Escherichia coli ATCC 25922; conditions: ATCC 25922
Summary of the method: as §1

[4] = test system: Klebsiella pneumoniae 968733; conditions: 968733
[5] = test system: Klebsiella pneumoniae SSI #3010; conditions: SSI #3010
Summary of the method: as §1

[6] = test system: Pseudomonas aeruginosa ATCC 27853; conditions: ATCC 27853
Summary of the method: as §1

[7] = test system: human red blood cells (hRBC); assay: Hemolysis of human red blood cells; conditions: red cells of human, 1 h, 100 μg/mL
Summary of the method: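 Washed fresh human erythrocytes (20% v/v, ~0.9×10^9 cells/mL final) were incubated with peptides at 100 μg/mL for 1 h at 37 °C with shaking. Supernatant OD540 measured; hemolysis expressed as % of 2.5% Triton X-100 lysis, with PBS/0.001% acetic acid as 0%.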

## CCCC[C@@H]1NC(=O)[C@@H]2CCCN2C(=O)[C@H]2CCCN2C(=O)[C@H](CO)NC(=O)[C@H](C)NC(=O)[C@H](C(C)(C)C)NC(=O)[C@H](CCN)NC(=O)[C@H](Cc2c[nH]c3ccccc23)NC(=O)[C@@H](N)CSSC[C@@H](C(=O)N[C@H](CCN)C(=O)N[C@H]2CCN(C)C(=O)[C@H](C(C)C)NC(=O)[C@H](CCN)NC(=O)[C@H](CCN)NC(=O)[C@H](CC(C)C)NC(=O)[C@@H](Cc3ccccc3)NC(=O)[C@H](CCN)NC2=O)NC(=O)[C@H](CCCN)NC(=O)[C@H](CCN)NC(=O)[C@H](Cc2ccc(O)cc2)NC(=O)[C@H](CO)NC1=O [Ex. 216]
[1]
  Acinetobacter baumannii 872842 MIC: 0.5 µg/mL
[2]
  Acinetobacter baumannii DSM 30008 MIC: 0.125 µg/mL
Escherichia coli 926415
  Escherichia coli 926415 MIC: 0.0625 µg/mL
[3]
  Escherichia coli ATCC 25922 MIC: 0.125 µg/mL
[4]
  Klebsiella pneumoniae 968733 MIC: 0.25 µg/mL
[5]
  Klebsiella pneumoniae SSI #3010 MIC: 0.125 µg/mL
[6]
  Pseudomonas aeruginosa ATCC 27853 MIC: 0.5 µg/mL
[7]
  Hemolysis at 100 μg/mL: 1%
